pEC50, pIC50: −log10 of the molar value.
Legend:
[1] = Cytotoxicity against human MT4 cells by MTT method; format: cell-based
[2] = target: T1, Human immunodeficiency virus type 1 integrase (Human immunodeficiency virus 1, UniProt Q7ZJM1); experiment: Inhibition of HIV1 integrase using labelled oligonucleotide substrate by ELISA
[3] = tested on: Human immunodeficiency virus 1; experiment: Antiviral activity against HIV1 3B infected in human MT4 cells assessed as reduction of virus-induced cytopathogenicity by MTT assay; format: functional, organism-based; conditions: Human immunodeficiency virus 1, 3B
[4] = target: T1, Human immunodeficiency virus type 1 integrase; experiment: Inhibition of HIV1 integrase 3'-processing activity using labelled oligonucleotide substrate by ELISA
[5] = target: T1, Human immunodeficiency virus type 1 integrase; experiment: Inhibition of HIV1 integrase strand transfer activity using labelled oligonucleotide substrate by ELISA
[6] = Therapeutic index, ratio of CC50 for human MT4 cells to EC50 for HIV1 3B; format: cell-based; conditions: read-out: Ratio CC50/EC50

T1 sequence (Q7ZJM1 whole entry): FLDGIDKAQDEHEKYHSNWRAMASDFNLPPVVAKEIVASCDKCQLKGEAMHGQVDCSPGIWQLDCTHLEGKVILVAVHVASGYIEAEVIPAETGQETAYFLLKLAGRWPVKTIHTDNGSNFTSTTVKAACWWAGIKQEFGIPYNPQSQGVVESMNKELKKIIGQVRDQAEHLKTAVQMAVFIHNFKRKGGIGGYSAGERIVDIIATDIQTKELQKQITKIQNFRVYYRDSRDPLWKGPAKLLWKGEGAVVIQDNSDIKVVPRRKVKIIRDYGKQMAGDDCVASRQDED

| SMILES | CC50 [1] [µM] | pIC50 [2] | pEC50 [3] | pIC50 [4] | pIC50 [5] | selectivity ratio [6] |
| --- | --- | --- | --- | --- | --- | --- |
| Cc1cc(-c2ccc(C(=O)O)c(O)c2)oc1C=C1C(=O)NC(=S)NC1=O | > 125 | 4.04 | < 3.90 | 3.90 | – | – |
| COc1cc(-c2ccc(/C=C3\SC(=S)NC3=O)o2)c(Cl)cc1C(=O)O | 143 | < 3.60 | < 3.85 | < 3.60 | – | – |
| COc1cc(-c2ccc(C=C3C(=O)NC(=S)NC3=O)o2)c(Cl)cc1C(=O)O | 100 | 4.36 | < 4.00 | 4.45 | – | – |
| O=C1NC(=S)NC(=O)C1=Cc1ccc(-c2cccc(C(=O)O)c2O)o1 | 140 | < 3.60 | < 3.85 | < 3.60 | – | – |
| Cc1ccc(C(=O)O)cc1-c1ccc(C=C2C(=O)NC(=S)NC2=O)o1 | 159 | 4.33 | < 3.80 | 4.60 | – | – |
| O=C1NC(=S)S/C1=C\c1ccc(-c2cc(C(=O)O)cc(O)c2O)o1 | 131 | 4.81 | 4.75 | 4.65 | 3.79 | 7 |
| O=C1NC(=S)N/C1=C\c1ccc(-c2ccc(C(=O)O)c(O)c2)o1 | 193 | 3.97 | < 3.71 | 4.13 | – | – |
| O=C1NC(=S)NC(=O)C1=Cc1ccc(-c2ccc(C(=O)O)c(O)c2)o1 | 60 | 5.05 | 4.52 | 5.56 | 4.16 | 2 |
| O=C1NC(=S)NC(=O)C1=Cc1ccc(-c2cc(C(=O)O)cc3c2OCO3)o1 | > 125 | 4.25 | < 3.90 | 4.15 | – | – |
| Cc1cc(-c2ccc(C(=O)O)c(O)c2)oc1/C=C1\NC(=S)NC1=O | – | < 3.60 | – | < 3.60 | – | – |
| O=C1NC(=S)S/C1=C\c1ccc(-c2ccc(Cl)c(C(=O)O)c2)o1 | 155 | < 3.60 | < 3.81 | < 3.60 | – | – |
| COc1cc(-c2ccc(C(=O)O)c(O)c2)oc1/C=C1\SC(=S)NC1=O | > 125 | < 3.60 | 3.95 | < 3.60 | – | – |
| O=C1NC(=S)NC(=O)C1=Cc1ccc(-c2ccc(O)c(C(=O)O)c2)o1 | 222 | 4.48 | < 3.65 | 4.28 | – | – |
| COc1cc(C(=O)O)cc(OC)c1-c1ccc(C=C2C(=O)NC(=S)NC2=O)o1 | 61.1 | 3.78 | < 4.21 | < 3.60 | – | – |
| Cc1cc(-c2ccc(C(=O)O)c(O)c2)oc1/C=C1\SC(=S)NC1=O | – | 3.80 | – | 3.87 | – | – |
| O=C1NC(=S)NC(=O)C1=Cc1ccc(-c2cc(C(=O)O)cc(O)c2O)o1 | 138 | 5.30 | 4.26 | 5.24 | < 3.60 | 3 |
| Cc1nnc(C(=O)NC(C)(C)c2nc(C(=O)NCc3ccc(F)cc3)c(O)c(=O)n2C)o1 | 143 | – | 8.19 | – | – | – |
| O=C1NC(=S)S/C1=C\c1ccc(-c2ccc(C(=O)O)c(O)c2)o1 | > 72 | 3.74 | 4.52 | < 3.60 | 4.01 | 2 |
| O=C1NC(=S)NC(=O)C1=Cc1ccc(-c2ccc(Cl)c(C(=O)O)c2)o1 | 152 | 4.38 | < 3.82 | 4.89 | – | – |
| O=C1NC(=S)NC(=O)C1=Cc1ccc(-c2ccc(F)cc2C(=O)O)o1 | 165 | 3.73 | < 3.78 | 4.33 | – | – |
| Cc1c(-c2ccc(C=C3C(=O)NC(=S)NC3=O)o2)cccc1[N+](=O)[O-] | 17.9 | 4.23 | < 4.75 | 4.39 | – | – |
| O=C1NC(=S)N/C1=C\c1ccc(-c2ccc(O)c(C(=O)O)c2)o1 | 152 | 4.29 | 4.02 | < 3.60 | < 3.60 | 2 |
